pEC50: −log10 of the molar value.
Assays:
[1] = tested on: Hep-G2 cells; test: Cell cytotoxicity CC50; assay type: cell-based; conditions: mean of at least two experiments
From the text: (§1) Plates were scanned and analysed using the Immunospot S6 Macro analyser, which is equipped with BioSpot analysis software for counting immunostained plaques (virospots). Plaque counts were used to calculate % infection relative to the mean of the plaque count in the virus control wells for RSV. […] Plaque EC50 and cell toxicity CC50 values are a mean of at least two experiments and figures are rounded to whole units.

[2] = tested on: RSV A2; test: RSV plaque reduction assay; assay type: cell-based, RSV (RSV A2 ECACC, 0709161v); conditions: Hep-G2 cells, RSV A2, 2 days, mean of at least two experiments
Protocol: Compounds were subjected to RSV plaque reduction assays according to the following protocol.
Hep-G2 cells (ECACC, 85011430) were passaged in flasks and seeded in 24-well plates in DMEM containing antibiotics and supplemented with 10% FBS. During inoculation and subsequent incubation, cells were cultured in DMEM containing 2% FBS. 100 plaque forming unit/well of RSV (RSV A2 ECACC, 0709161v) was mixed with eight serial dilutions of compound. Subsequently, 100 µL of the virus/compound mixtures was added to confluent Hep-G2 cell monolayers. The cells and virus/compound mixtures were incubated at 37° C. in a humidified 5% CO2 incubator for 2 h prior to removal of the inoculum and addition of 1 mL of overlay (DMEM containing 2% FBS and 0.8% CMC) containing compound dilutions. The cells and were incubated at 37° C. in a humidified 5% CO2 incubator for 2 days.
Cells were washed with PBS before adding 75%/25% v/v EtOH/MeOH, for 3 min. Fix ative was removed and plates were washed with PBS. A pre-titrated amount of the primary antibody was added in 200 µL PBS/2% milk powder, and plates incubated for 90 min at 37° C. The plates were washed 3 times with PBS/0.05% Tween20 before addition of rabbit anti-goat horse radish peroxidase in 200 µL PBS/2% milk powder, and incubated for 1 h at 37° C. Following three wash steps with PBS/0.05% Tween20, 200 µL ready-to-use TrueBlue was added and plates were incubated at rt for 10-15 min before washing with water. After removal of water, plates were air-dried in the dark.
as §1

[3] = Cell cytotoxicity CC50; assay type: cell-based; conditions: human; mean of at least two experiments
From the text: as §1

[4] = human respiratory syncytial virus, HepG2, 48 h

With CC(C)Nc1ccc(-c2nn3c(c2C(=O)N[C@H]2N=C(c4ccccc4)c4cccc(F)c4NC2=O)OC(C)CCC3)c(F)n1 (single isomer, unassigned) [Example 13-2, (5S*)-N-[(3S)-9-fluoro-2-oxo-5-phenyl-1,3-dihydro-1,4-benzodiazepin-3-yl]-2-[2-fluoro-6-(propan-2-ylamino)pyridin-3-yl]-5-methyl-5,6,7,8-tetrahydropyrazolo[5,1-b][1,3]oxazepine-3-carboxamide] the CC50 [1] was > 25000 nM and the pEC50 [2] was 7.64.
With CC1CCCOc2c(C(=O)NC3N=C(c4ccccc4)c4cccc(F)c4NC3=O)c(-c3ccccc3F)nn21 (single isomer, unassigned) [Example 15-2, (8S*)-N-(9-fluoro-2-oxo-5-phenyl-1,3-dihydro-1,4-benzodiazepin-3-yl)-2-(2-fluorophenyl)-8-methyl-5,6,7,8-tetrahydropyrazolo[5,1-b][1,3]oxazepine-3-carboxamide] the CC50 [1] was > 25000 nM and the pEC50 [2] was 7.43.
In the case of CC(C)Nc1ccc(-c2nn3c(c2C(=O)N[C@H]2N=C(c4ccccc4)c4ccccc4NC2=O)OC(C)CCC3)c(F)n1 (single isomer, unassigned) [Example 12-2, (5S*)-2-[2-fluoro-6-(propan-2-ylamino)pyridin-3-yl]-5-methyl-N-[(3S)-2-oxo-5-phenyl-1,3-dihydro-1,4-benzodiazepin-3-yl]-5,6,7,8-tetrahydropyrazolo[5,1-b][1,3]oxazepine-3-carboxamide], the CC50 [1] was > 25000 nM and the pEC50 [2] was 7.48.
In the case of CCC1CCCn2nc(-c3ccccc3F)c(C(=O)N[C@H]3N=C(c4ccccc4)c4ccccc4NC3=O)c2O1 (single isomer, unassigned) [Example 24-2, (5S*)-5-ethyl-2-(2-fluorophenyl)-N-[(3S)-2-oxo-5-phenyl-2,3-dihydro-1H-1,4-benzodiazepin-3-yl]-5H,6H,7H,8H-pyrazolo[3,2-b][1,3]oxazepine-3-carboxamide], the CC50 [1] was > 25000 nM and the pEC50 [2] was 7.05.
For CCC1CCCn2nc(-c3ccc(C)nc3)c(C(=O)N[C@H]3N=C(c4ccccc4)c4cccc(F)c4NC3=O)c2O1 (single isomer, unassigned) [Example 27-2, (5S*)-5-ethyl-N-[(3S)-9-fluoro-2-oxo-5-phenyl-2,3-dihydro-1H-1,4-benzodiazepin-3-yl]-2-(6-methylpyridin-3-yl)-5H,6H,7H,8H-pyrazolo[3,2-b][1,3]oxazepine-3-carboxamide], the CC50 [1] was > 25000 nM and the pEC50 [2] was 6.59.
For CCC1CCCn2nc(-c3ccccc3F)c(C(=O)N[C@H]3N=C(c4ccccc4)c4cccc(F)c4NC3=O)c2O1 (single isomer, unassigned) [Example 25-2, (5S*)-5-ethyl-2-(2-fluorophenyl)-N-[(3S)-9-fluoro-2-oxo-5-phenyl-1,3-dihydro-1,4-benzodiazepin-3-yl]-5,6,7,8-tetrahydropyrazolo[5,1-b][1,3]oxazepine-3-carboxamide], the CC50 [1] was > 25000 nM and the pEC50 [2] was 7.08.
With CC1CCCOc2c(C(=O)NC3N=C(c4ccccc4)c4ccccc4NC3=O)c(-c3ccccc3F)nn21 (single isomer, unassigned) [Example 14-2, (8S*)-2-(2-Fluorophenyl)-8-methyl-N-(2-oxo-5-phenyl-1,3-dihydro-1,4-benzodiazepin-3-yl)-5,6,7,8-tetrahydropyrazolo[5,1-b][1,3]oxazepine-3-carboxamide] the CC50 [1] was > 25000 nM and the pEC50 [2] was 7.22.
For “2-(2,4-Difluorophenyl)-5-methyl-N-[(3S)-2-oxo-5-phenyl-1,3-dihydro-1,4-benzodiazepin-3-yl]-5,6,7,8-tetrahydropyrazolo[5,1-b][1,3]oxazepine-3-carboxamide [Example 16]”, the CC50 [1] was > 25000 nM and the pEC50 [2] was 7.19.
For CC1CCCn2nc(-c3ccc(F)cc3F)c(C(=O)N[C@H]3N=C(c4ccccc4)c4cccc(F)c4NC3=O)c2O1 (single isomer, unassigned) [Example 17-2, (5S*)-2-(2,4-difluorophenyl)-N-[(3S)-9-fluoro-2-oxo-5-phenyl-1,3-dihydro-1,4-benzodiazepin-3-yl]-5-methyl-5,6,7,8-tetrahydropyrazolo[5,1-b][1,3]oxazepine-3-carboxamide], the CC50 [1] was > 25000 nM and the pEC50 [2] was 7.70.
In the case of O=C(N[C@H]1N=C(c2ccccc2)c2cccc(F)c2NC1=O)c1c(-c2ccccc2F)nn2c1SCCCC2 [Example 20, N-[(3S)-9-fluoro-2-oxo-5-phenyl-2,3-dihydro-1H-1,4-benzodiazepin-3-yl]-2-(2-fluorophenyl)-5H,6H,7H,8H-pyrazolo[3,2-b][1,3]thiazepine-3-carboxamide], the CC50 [3] was > 25000 nM and the pEC50 [2, 4] was 7.47.
In the case of CC1CCCn2nc(-c3ccc(F)cc3F)c(C(=O)N[C@H]3N=C(c4ccccc4)c4ccccc4NC3=O)c2O1 (single isomer, unassigned) [Example 16-2, (5S*)-2-(2,4-difluorophenyl)-5-methyl-N-[(3S)-2-oxo-5-phenyl-1,3-dihydro-1,4-benzodiazepin-3-yl]-5,6,7,8-tetrahydropyrazolo[5,1-b][1,3]oxazepine-3-carboxamide], the CC50 [1] was > 25000 nM and the pEC50 [2] was 7.41.
For CC1CCCn2nc(-c3ccc(F)cc3F)c(C(=O)N[C@H]3N=C(c4ccccc4)c4cccc(F)c4NC3=O)c2O1 (stereo partly drawn) [Example 17, 2-(2,4-Difluorophenyl)-N-[(3S)-9-fluoro-2-oxo-5-phenyl-1,3-dihydro-1,4-benzodiazepin-3-yl]-5-methyl-5,6,7,8-tetrahydropyrazolo[5,1-b][1,3]oxazepine-3-carboxamide], the CC50 [3] was > 25000 nM and the pEC50 [2, 4] was 7.57.
With O=C(NC1N=C(c2ccccc2)c2cccc(F)c2NC1=O)c1c(-c2ccccc2F)nn2c1OCC(N1CCOCC1)CC2 (stereo in doubt) [Example 29, 2-(2-Fluorophenyl)-6-morpholin-4-yl-N-[(3R)-9-fluoro-2-oxo-5-phenyl-1,3-dihydro-1,4-benzodiazepin-3-yl]-5,6,7,8-tetrahydropyrazolo[5,1-b][1,3]oxazepine-3-carboxamide] the CC50 [3] was > 25000 nM and the pEC50 [2, 4] was 6.81.
With CCNc1ccc(-c2nn3c(c2C(=O)N[C@H]2N=C(c4ccccc4)c4ccccc4NC2=O)OC(C)CCC3)c(F)n1 (stereo partly drawn) [Example 10, 2-[6-(Ethylamino)-2-fluoropyridin-3-yl]-5-methyl-N-[(3S)-2-oxo-5-phenyl-1,3-dihydro-1,4-benzodiazepin-3-yl]-5,6,7,8-tetrahydropyrazolo[5,1-b][1,3]oxazepine-3-carboxamide] the CC50 [3] was > 25000 nM and the pEC50 [2, 4] was 7.51.
For CC(C)Nc1ccc(-c2nn3c(c2C(=O)N[C@H]2N=C(c4ccccc4)c4ccccc4NC2=O)OC(C)CCC3)c(F)n1 (stereo partly drawn) [Example 12, 2-[2-Fluoro-6-(propan-2-ylamino)pyridin-3-yl]-5-methyl-N-[(3S)-2-oxo-5-phenyl-1,3-dihydro-1,4-benzodiazepin-3-yl]-5,6,7,8-tetrahydropyrazolo[5,1-b][1,3]oxazepine-3-carboxamide], the CC50 [3] was > 25000 nM and the pEC50 [2, 4] was 7.47.
For CC(C)Nc1ccc(-c2nn3c(c2C(=O)N[C@H]2N=C(c4ccccc4)c4cccc(F)c4NC2=O)OC(C)CCC3)c(F)n1 (stereo partly drawn) [Example 13, N-[(3S)-9-fluoro-2-oxo-5-phenyl-1,3-dihydro-1,4-benzodiazepin-3-yl]-2-[2-fluoro-6-(propan-2-ylamino)pyridin-3-yl]-5-methyl-5,6,7,8-tetrahydropyrazolo[5,1-b][1,3]oxazepine-3-carboxamide], the CC50 [3] was > 25000 nM and the pEC50 [2, 4] was 7.47.

Source: US20230365585A1, “BENZODIAZEPINE DERIVATIVES USEFUL IN TREATING A RESPIRATORY SYNCYTIAL VIRUS INFECTION” (priority 2020, published 2023)
